Laboratory results: a melting point compilation (Tetko et al.; mined from patent text by program, amines drawn as free bases though some values may be those of a salt)

Compound `COc1ccc2c(c1)C1=C(SCC3(CCN(CC(O)Cc4ccccc4)CC3)O1)C(=O)C2=O` (configuration not stated) has a melting point of 106 °C.
`CCOC(=O)c1cnc2c(C(F)(F)F)cc(-c3ccc(C(F)(F)F)cc3)cn12` showed a melting point of 132 °C.
`CC(NCCO)c1ccccc1` (configuration not stated) showed a melting point of 60 °C.
Work on `CC(=O)Cn1c(CO)nc(C(C)C)c1Sc1cc(Cl)cc(Cl)c1` yielded a melting point of 165 to 167 °C.
In the case of `CCCC1(S(=O)(=O)CCCN2CCC(N3Cc4ccccc4C3=O)CC2)c2ccccc2-c2ccccc21`, the melting point was 83 to 86 °C.
In the case of `Cc1nc2c(N)nc3cc(-c4ccccc4)ccc3c2n1CCCS(C)(=O)=O`, the melting point was 203 to 205 °C.
In the case of `CN1C(=O)C(C)(c2ccc(O)cc2)Sc2ccccc21` (configuration not stated), the melting point was 158 to 160 °C.
In the case of `CCCc1nc2c(N)nc3ccccc3c2n1CCCCN(OC)C(=O)Nc1ccccc1`, the melting point was 164 to 166 °C.
Compound `CC(C)(C)OC(=O)N1CCC(CCc2c3c(nn2C(C)(C)C)c(=O)[nH]c2ccccc23)CC1` has a melting point of 223 to 225 °C.
For `O=C(CCO)Nc1cccc(S)c1`, the melting point was 103 to 104 °C.
In the case of `CC(O)c1cc2ccccc2cn1` (configuration not stated), the melting point was 104 to 106 °C.
`COC(=O)CCc1cc(O)cc2cc(-c3ccc(O)cc3)oc12` showed a melting point of 167 to 170 °C.
In the case of `COC(=O)c1ccccc1S(=O)(=O)NC(=O)c1cc(C)n(C)n1`, the melting point was 176 to 177 °C.
`COC1CCN(C2CCN(c3ccc(NC(=O)c4cnn(-c5ccc(Cl)cc5)c4C)cc3C#N)CC2)CC1` gave a melting point of 245 °C.
In the case of `CCC1c2c(ncn2C)CCN1C(=S)NC(C)C` (configuration not stated), the melting point was 196 °C.
With `CCNc1nc(N)nc(N)n1` the melting point was 171 °C.
Compound `Cn1ccc2c(NC(=O)c3ccccc3O)cccc21` has a melting point of 211 °C.
Compound `O=C(c1ccccc1)c1cc([N+](=O)[O-])ccc1-n1nc(CCl)cc1CCl` has a melting point of 152 to 155 °C.
`NNC(=O)c1nc(CS(=O)(=O)c2ccc(Cl)cc2)no1` showed a melting point of 177 °C.
In the case of `CC(=O)Nc1ccc(C=CC(=O)C2C(=O)OC(=O)C(C(C)=O)=C2O)cc1` (configuration not stated), the melting point was 230 to 231 °C.
`CC(C)(C)OC(=O)NC1CCCCCC=CC2CC2(C(=O)NS(=O)(=O)C2CC2)NC(=O)C2CC(OC(=O)c3ccc(-n4cccn4)cc3)CN2C1=O` (configuration not stated) gave a melting point of 167 to 169 °C.
Work on `Cc1nccn1CCCNC(=O)c1cccc2oc(-c3ccccc3)nc12` yielded a melting point of 145 to 148 °C.
`COc1ccccc1Oc1c(NS(=O)(=O)c2ccc3c(c2)OCO3)nc(-c2ccnc(-c3nnn[nH]3)c2)nc1OCCO` showed a melting point of 227 to 229 °C.
For `CC(C)(C)c1ncc([C@H]2[C@H](C(=O)O)C2(C)C)cn1` (relative stereo), the melting point was 168 to 169 °C.
For `O=C1NCc2nc3ccc(Cl)cc3c(=O)n2-c2ccccc21`, the melting point was 286 to 288 °C.
`Clc1cccc(C(c2ccc3[nH]cnc3c2)n2ccnc2)c1` (configuration not stated) gave a melting point of 108 °C.
Work on `O=c1cc(-c2ccncn2)nc2n1CCCCC2` yielded a melting point of 148 to 150 °C.
Work on `Cc1c(F)cc(C(C)(C)C)c(O)c1-c1nc2cc(S(=O)(=O)C(F)(F)F)ccc2[nH]1` yielded a melting point of 245 to 247 °C.
Compound `COc1cc(Cl)cc(CSCCNC(=O)c2c(Cl)cccc2Cl)c1` has a melting point of 83 to 84 °C.
With `CCOC(=O)c1cnc2n(c1=O)CCc1ccccc1-2` the melting point was 117 to 125 °C.
For `Cc1sc(CO)c(C)c1Br`, the melting point was 85 to 90 °C.
Compound `CCCC[C@H](NC(=O)[C@H](CC(C)C)NC(=O)c1cccc(C)c1)C(=O)CSCc1ccco1` has a melting point of 123 to 126 °C.
Compound `COc1cccc(CC(=O)O)c1OCCCc1ccc(OC(C)C)cc1Oc1ncc(Cl)cc1Cl` has a melting point of 92 to 93 °C.
Work on `Nc1cccc(COc2cccc3cccnc23)c1` yielded a melting point of 146 to 147 °C.
With `O=C1CCC(N2Cc3c(OCc4ccc(OCCN5CCOCC5)cc4)cccc3C2=O)C(=O)N1` (configuration not stated) the melting point was 203 to 205 °C.
`O=C(NCC(O)CO)c1cc2c(Oc3ccc(Cl)cc3)cncc2s1` (configuration not stated) gave a melting point of 106 to 115 °C.
For `CC(C)(C)OC(=O)NC1CCCCCC=CC2CC2(C(=O)NS(=O)(=O)C2CC2)NC(=O)C2CC(OC(=O)c3ccc(CC(=O)O)cc3)CN2C1=O` (configuration not stated), the melting point was 154 to 156 °C.
Compound `COC(=O)C1CCC2(C3(C)OCCO3)CC1C(=O)O2` (configuration not stated) has a melting point of 69 to 71 °C.
For `COCCOCCOc1ccc(/C=C/C(=O)O)c(Oc2ncc(C(F)(F)F)cc2Cl)c1`, the melting point was 134 °C.
Compound `O=C(NCc1ccccc1)Oc1ccc2c(ccn2Cc2ccncc2)c1` has a melting point of 112 to 114 °C.
In the case of `CC(=C(F)c1ccccc1)c1ccc2c(c1)C(C)(C)CCC2(C)C`, the melting point was 100 °C.
For `Cc1cc(C)cc(C(=O)N2CC[C@H](NCc3ccnc4ccccc34)C[C@H]2Cc2ccc(Cl)c(Cl)c2)c1` (relative stereo), the melting point was 121 to 124 °C.
With `Cc1oc(-c2cccnc2)nc1CCl` the melting point was 87 to 88 °C.
`CCC(C)(C)c1cc(C(=O)c2ccccc2)c(O)cc1O` showed a melting point of 100 to 104 °C.
Work on `O=C1c2ccncc2C(=O)c2c(F)ccc(O)c21` yielded a melting point of 189 to 192 °C.
Compound `CC(C)C(N=C(NN)NN)C(=O)O` (configuration not stated) has a melting point of 112 to 116 °C.
With `Nc1nc(-c2cccnc2Cl)c(-c2cccnc2Cl)s1` the melting point was 273 to 274 °C.
For `CC(C)c1ccc(C#CC(C)N(O)C(N)=O)cc1` (configuration not stated), the melting point was 154 to 156 °C.
Work on `O=Cc1ccc2c(c1)C=C(C(=O)O)C(C(F)(F)F)O2` (configuration not stated) yielded a melting point of 211 to 216 °C.
With `Cc1ccc(-c2cc(N)c(Cl)c(C(=O)O)n2)cc1C` the melting point was 192 to 194 °C.
Compound `CCCCN(CCCC)C(=O)c1cc(C(C)(C)C)c(O)c(C(C)(C)C)c1` has a melting point of 94 to 95 °C.
With `O=C1C(=O)c2ccc(Br)cc2C2=C1SCC1(CCN(CC(O)COc3ccc4cc(Br)ccc4c3)CC1)O2` (configuration not stated) the melting point was 104 to 105 °C.
In the case of `O=c1ccoc2c3c(ccc12)OCC(CO)O3` (configuration not stated), the melting point was 125 °C.
In the case of `CC(CO)N1C(=O)N(c2ccc(Cl)cc2)CC1C` (configuration not stated), the melting point was 108 to 110 °C.
For `COc1ccc(CN(C)CCc2ccc(NC(=O)c3cccc4c(=O)c5cc(F)ccc5sc34)cc2)cc1OC`, the melting point was 205 °C.
With `c1cc(CN2CCCCC2)cc(OCCNc2nc3ccccc3s2)c1` the melting point was 141 to 142 °C.
`CS(=O)(=O)Nn1c(=O)[nH]c2cc(C(F)(F)F)c(-n3cnc(Br)c3)cc2c1=O` showed a melting point of 229 to 233 °C.
`CCNCCCOc1ccc(-c2ccc(C(=O)O)cc2)cc1-c1ccc2c(c1)C(C)(C)CCC2(C)C` gave a melting point of 233 °C.
For `COc1cc2c(cc1C(F)(F)F)N(C(=O)Nc1cc(F)cc(I)c1)CC2`, the melting point was 221 to 224 °C.
In the case of `Nc1cc(Cl)nc(S(=O)Cc2ccc3ccccc3c2)n1` (configuration not stated), the melting point was 222 to 223 °C.
In the case of `NC(CCN1CCC(O)(Cc2ccccc2)CC1)C(=O)c1ccccc1` (configuration not stated), the melting point was 123 to 124 °C.
With `COc1cc2c3c(n(Cc4ccccc4)c(=O)c2cc1OC)-c1cc2c(cc1C3=O)OCO2` the melting point was 310 to 312 °C.
Compound `O=C1OC(Cl)(c2ccc(Cl)cc2Cl)c2ccccc21` (configuration not stated) has a melting point of 148 to 149 °C.
Compound `Cc1cc2c(-c3cccc(/C=C/C=O)c3)c(CC(=O)Nc3ccc(F)cc3C(F)(F)F)c(=O)oc2cc1Cl` has a melting point of 232 to 235 °C.
Compound `C[C@@H](NCc1ccc(O)cc1)c1cccc2ccccc12` has a melting point of 132 to 133 °C.
In the case of `Cc1cccc(C)c1NC1=NCCN1`, the melting point was 155 to 156 °C.
With `CC(C)(C)OC(=O)[C@@H](N)Cc1ccc(O)c(I)c1` the melting point was 158 to 159 °C.
Work on `CC(O)CN(CC(C)O)C1CC(C)(C)NC(C)(C)C1` (configuration not stated) yielded a melting point of 97 to 102 °C.
Compound `CC(C)CC(=O)Nc1cccc(-c2ccnc3c(-c4ccc(CO)cc4)cnn23)c1` has a melting point of 170 to 172 °C.
Compound `CC(C)(C)c1cccc(S(=O)(=O)Nc2ccc(C(F)(F)F)nc2I)c1` has a melting point of 125 °C.
`O=C1CCC(Cc2ccccc2Cl)CC1` showed a melting point of 48 °C.
Work on `Cc1cc(C)c(N(C)C(=O)CN2C(=O)c3ccccc3C2=O)c(C)c1CO` yielded a melting point of 254 to 256 °C.
`O=C(N[C@H]1CCN(C(=O)c2cc(C(F)(F)F)cc(C(F)(F)F)c2)[C@H](Cc2ccc(Cl)cc2)C1)c1cc(=O)c2ccccc2o1` showed a melting point of 169 to 170 °C.
Work on `CC(C)c1cccc(C(C)C)c1NC(=O)CO` yielded a melting point of 164 to 166 °C.
Compound `CC=C1CC1C(=C1C(=O)OC(=O)C1c1cc(C)n(-c2ccccc2)c1C)C1CC1` (configuration not stated) has a melting point of 145 °C.
In the case of `O=S(=O)(Nc1cnc(-n2cnnn2)nc1NCc1ccccc1)c1ccc(Br)cc1`, the melting point was 184 °C.
`CC(C)C(NS(=O)(=O)c1ccc(Cl)s1)c1ncnn1Cc1ccccc1` (configuration not stated) gave a melting point of 138 to 139 °C.
Compound `O=C1N[C@H](Cc2ccccc2C(F)(F)F)[C@H](c2ccc(F)cc2)O1` (racemic) has a melting point of 138 to 140 °C.
For `CC(=O)NC(C(=O)OCc1cc(C)cc(C)c1)C1c2ccccc2-c2ccccc21` (configuration not stated), the melting point was 162 to 164 °C.
With `CN(C)C1CCN(c2cccc(-c3cnc4[nH]cc(C(=O)C(C)(C)C)c4n3)c2)C1` (configuration not stated) the melting point was 204 to 206 °C.
`Cc1cc(N)nc(CCCCCCCCCCO)c1O` showed a melting point of 138 to 139 °C.
In the case of `COC(=O)[C@@H]1C[C@H](C(=O)OC(C)(C)C)N(C(=O)CNC(=O)Nc2cccc(C(=O)O)c2)[C@@H]1c1ccccc1` (racemic), the melting point was 243 °C.
With `COc1ccc(-c2cc3ccccc3[nH]2)cc1NC(=S)NCCNC(=O)OC(C)(C)C` the melting point was 159 to 160 °C.
For `COCN1C(=O)C(NC(=O)Nc2cccc(C(=O)NS(C)(=O)=O)c2)CN(c2ccccc2)c2ccccc21` (configuration not stated), the melting point was 199 to 205 °C.
`Cc1nc2c(NC(=O)C(C)(C)C)c(C(O)C=Cc3ccccc3)ccn2c1C` (configuration not stated) showed a melting point of 194 to 195 °C.
With `O=C(O)CCCCCCc1cncc2ccccc12` the melting point was 108 to 109 °C.
Compound `O=c1oc(-c2ccc(Oc3ccccc3)cc2)cc(O)c1SCCc1ccccc1` has a melting point of 127 to 128 °C.
With `CCCS(=O)(=O)c1ccc(NS(=O)(=O)c2cccs2)c2[nH]c(C(=O)NCCSC(c3ccccc3)(c3ccccc3)c3ccccc3)cc12` the melting point was 200 to 201 °C.
`COc1ccc(S(=O)(=O)N2C(=O)C(O[Si](C)(C)C)(c3ccccc3Cl)c3cc(Cl)c(OC)cc32)c(OC)c1` (configuration not stated) gave a melting point of 217 to 219 °C.
For `ON=C1CCC(c2ccccc2)CC1c1ccccc1` (configuration not stated), the melting point was 214 to 215 °C.
Compound `CS(=O)(=O)Nc1ccc(SCCCCl)cc1` has a melting point of 61 to 63 °C.
In the case of `C=C1C(OC(C)=O)C(CO)OC1n1ccc(NC(C)=O)nc1=O` (configuration not stated), the melting point was 174 to 175 °C.
With `COc1cc(OCc2nc(-c3ccco3)oc2C)ccc1CO` the melting point was 117 to 118 °C.
`CNc1ccncc1N` showed a melting point of 163 to 165 °C.
`O=C1CC(CF)(CF)Oc2ccc(C(F)(F)F)cc21` gave a melting point of 73 to 74.5 °C.
Work on `COC1(OCCc2nc(C(C)C)c(Sc3cc(Cl)cc(Cl)c3)n2C)CCCCCCC1` yielded a melting point of 54 to 56 °C.
Work on `O=C(O)Cc1ccc(NC(=O)c2ccccc2SSc2ccccc2C(=O)Nc2ccc(CC(=O)O)cc2)cc1` yielded a melting point of 257 to 260 °C.
